Assay results from patent US20190183950A1, “COMMENSAL FUNGI AND COMPONENTS THEREOF FOR USE IN MODULATING IMMUNE RESPONSES” (priority 2017, published 2019).

What was measured:
[1] = tested on: DSS induced intestinal injury; experiment: DSS induced intestinal injury (survival, colon length, permeability, histology); assay type: in vivo, mouse; conditions: for susceptibility to DSS (mortality): antibiotic treated mice, intrarectal administration every other day from one day prior to DSS
influenza A virus = assay type: in vivo, mouse
NF-κB = experiment: RAW-Blue stimulation and quantification of NF-κB activity; assay type: cell-based, murine; conditions: 500 μg/mL
Protocol: RAW-Blue cells (InvivoGen) cells are derived from the murine RAW 264.7 macrophages with chromosomal integration of a secreted embryonic alkaline phosphatase reporter construct induced by NF-κB. 5×10^4 RAW-Blue cells were seeded 24 hours prior to addition of the indicated blocking antibody. One hour thereafter, mannan (Sigma) was added at a final concentration of 500 μg/mL. Supernatants were collected after 24 hours to quantify NF-κB activity by colorimetric assay using QUANTI-Blue reagent (InvivoGen).

C. albicans [2] = experiment: Depletion of intestinal C. albicans with fluconazole in antibiotic cocktail treated mice; assay type: in vivo, mouse; conditions: C. albicans mono-colonized mice, 10 days after adding fluconazole to antibiotic-supplemented drinking water
C. albicans [3] = conditions: mouse, in vivo
C. albicans [4] = conditions: mouse, in vivo; remark: listed apart in the source
[5] = tested on: allergic airway inflammation; experiment: House dust mite airway reactivity and inflammation; assay type: in vivo, mouse; conditions: colonized mice, colonization eradicated with fluconazole
Protocol: Mice were anesthetized with ketamine/xylazine and hung by their front incisors on an angled stand. 100 μg house dust mite extract (Greer Laboratories) in 40 μL sterile saline was administered intratracheally. 10 days later, mice were challenged with the same amount of house dust mite extract. 48 hours after the second intratracheal challenge, airway resistance in response to inhaled methacholine (100 mg/mL) was measured using FlexiVent (SCIREQ). Saline perfused lungs were minced and digested with collagenase D (1 mg/mL) and DNAse (0.1 mg/mL) in DMEM media supplemented with 10% fetal bovine serum, 1% L-glutamine, 10 mM HEPES, 1% penicillin-streptomycin (Cellgro) for 30 minutes at 37° C. with gentle shaking (200 rpm). The tissue digest was then passed through a 70 μm filter to obtain single cell suspensions.

[6] = tested on: Th17 CD4+ T cells and circulating neutrophils; experiment: Systemic immune cell analysis (tetramer staining, cytokine production, IL-17RC, reactive oxygen) in colonized mice; conditions: fluconazole treated colonized mice
Text: Fluorophore- or biotin-conjugated antibodies used mouse cell analysis are as follows: anti-CD4 (GK1.5, eBioscience), anti-CD8a (53-6.7, eBioscience), anti-CD11b (M1/70, Biolegend), anti-CD11c (N418, Biolegend), anti-F4/80 (BM8, eBioscience), anti-B220 (RA3-6B2, Biolegend), anti-CD44 (IM7, Biolegend), anti-CD45 (30F11, invitrogen), anti-Ly6G (1A8, BD bioscience), anti-Ly6C (HK1.4, Biolegend), anti-Gr1 (RB6-8C5, eBioscience), anti-IL-17RC (polyclonal IgG, R&D Systems), anti-FOXP3 (FJK-16S, eBioscience), anti-RORγt (Q31-378, BD bioscience), anti-T-bet (4B10, Biolegend), anti-IFN-γ (XMG1.2, eBioscience), anti-IL17A (TC 11-18H10.1, Biolegend), anti-IL17F (9D3.1C8, Biolegend). Fluorophore-conjugated antibodies were used for human cell analysis are as follows: anti-CD4 (OKT4, eBioscience), anti-CD15 (H198, invitrogen), anti-CD16 (3G8, Biolegend), anti-IL-17A (eBio64DEC17, eBioscience), anti-IL17F (O33-782, BD Bioscience), anti-IL17RC (309822, R&D Systems) with staining in the presence of Human Fc block (BD Bioscience). […] Single cell suspensions from spleen and peripheral lymph nodes were stained with APC conjugated I-Ab:2W1S55-68 tetramer at room temperature for 60 minutes, and enriched using anti-APC antibody conjugated magnetic beads (Militenyi Biotec) as described (Moon et al., Immunity 27:203-213 (2007)). Samples were acquired using an FACSCanto (BD) cytometer and analyzed using FlowJo software (Tree Star).

[7] = antibiotic treated mice, intrarectal administration

## curdlan
[1]
  susceptibility to DSS (mortality): failed to improve mortality

## mannan
[1]
  susceptibility to DSS (mortality): mitigated
Influenza A virus; [7]
  survival and accumulation of protective immune cells: restored to levels comparable to C. albicans colonized controls
  susceptibility to influenza A virus infection: mitigated
NF-κB; with antibody blockade against TLR2
  mannan stimulated cell activation: not significantly impacted
NF-κB; with antibody blockade against dectin-2
  mannan stimulated cell activation: not significantly impacted
NF-κB; with antibody blockade against the mannose receptor
  mannan stimulated cell activation: not significantly impacted
NF-κB; with neutralization of TLR4
  mannan induced NF-κB: significantly reduced
NF-κB; with neutralization of dectin-1
  mannan induced NF-κB: significantly reduced

## OC(Cn1cncn1)(Cn1cncn1)c1ccc(F)cc1F [fluconazole]
[1]; mouse, in vivo
  survival and time-to-death after DSS challenge: efficiently abolished the improved survival and delayed time-to-death
Influenza A virus; mouse, in vivo
  protection against influenza A: similarly overturned
C. albicans [2]
  recoverable fungi in the feces: rapidly declined to undetectable levels
C. albicans [3]
  fungal pathogen burden in the kidney after intravenous infection: significantly increased fungal pathogen burden in the kidney
C. albicans [4]
  C. albicans intestinal colonization: efficiently eliminates C. albicans intestinal colonization
[5]
  accumulation of RORγt+ and IL-17 producing CD4+ T cells in the lungs: efficiently overturned
  airway responsiveness: efficiently overturned
[6]
  IL-17RC expression by circulating leukocyte and neutrophils: similarly overturned
  RORγt expression by I-Ab:2W1S specific CD4+ T cells: reduced to background levels
  expansion of circulating neutrophils: similarly overturned
  neutrophil production of reactive oxygen species: similarly overturned
  number of CD4+ T cells with commensal C. albicans I-Ab:2W1S specificity: reduced to background levels
[6]; heat-killed C. albicans stimulation
  IL-17A and IL-17F production by spleen and lymph node CD4+ T cells: similarly overturned
